PubChem BioAssay (NCI)
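Compound exposure: 48 hours, 5 concentrations, 96-well plates. GI50 = concentration required for 50% inhibition of growth. TGI: concentration producing complete growth inhibition.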

Legend:
Assay in all cases: DTP human tumour cell line panel, 48 h
[1] = test system: SN12C renal
[2] = test system: IGROV1 ovarian
[3] = test system: MOLT-4 leukemia
[4] = test system: COLO 205 colon
[5] = test system: HCC-2998 colon
[6] = test system: HOP-62 NSCLC
[7] = test system: UACC-257 melanoma
[8] = test system: HL-60(TB) leukemia
[9] = test system: A549 NSCLC
[10] = test system: HS 578T breast
[11] = test system: NCI-H23 lung
[12] = test system: M14 melanoma
[13] = test system: OVCAR-8 ovarian
[14] = test system: RXF 393 renal
[15] = test system: SK-MEL-28 melanoma
[16] = test system: SF-295 CNS
[17] = test system: MCF7 breast
[18] = test system: SR leukemia
[19] = test system: U251 CNS
[20] = test system: HOP-92 NSCLC
[21] = test system: NCI-H522 lung
[22] = test system: BT-549 breast
[23] = test system: UO-31 renal
[24] = test system: UACC-62 melanoma
[25] = test system: KM12 colon
[26] = test system: OVCAR-5 ovarian
[27] = test system: TK-10 renal
[28] = test system: HCT-15 colon
[29] = test system: MALME-3M melanoma
[30] = test system: SK-OV-3 ovarian
[31] = test system: EKVX NSCLC
[32] = test system: A498 renal
[33] = test system: HT29 colon
[34] = test system: SNB-75 CNS
[35] = test system: SK-MEL-5 melanoma
[36] = test system: OVCAR-3 ovarian
[37] = test system: NCI-H226 lung
[38] = test system: SW-620 colon
[39] = test system: SK-MEL-2 melanoma
[40] = test system: HCT-116 colon
[41] = test system: SF-268 CNS
[42] = test system: CAKI-1 renal
[43] = test system: 786-0 renal
[44] = test system: K-562 leukemia
[45] = test system: MDA-MB-231 breast
[46] = test system: PC-3 prostate
[47] = test system: CCRF-CEM leukemia
[48] = test system: DU-145 prostate
[49] = test system: RPMI-8226 leukemia
[50] = test system: NCI-H460 lung
[51] = test system: LOX IMVI melanoma
[52] = test system: SF-539 CNS
[53] = test system: T-47D breast
[54] = test system: NCI/ADR-RES ovarian
[55] = test system: MDA-MB-435
[56] = test system: SNB-19 CNS
[57] = test system: OVCAR-4 ovarian
[58] = test system: ACHN renal

## Cc1ccccc1NC(=O)Nc1nc2ccc([N+](=O)[O-])cc2s1
[1]
  GI50: 2.38 µM
  TGI: 7.12 µM
[2]
  GI50: 3.38 µM
  TGI: 13.4 µM
[3]
  GI50: 1.76 µM
  TGI: 4.02 µM
[4]
  GI50: 1.61 µM
  TGI: 3.16 µM
[5]
  GI50: 2.29 µM
  TGI: 5.38 µM
[6]
  GI50: 2.49 µM
  TGI: 7.01 µM
[7]
  GI50: 1.89 µM
  TGI: 5.12 µM
[8]
  GI50: 1.79 µM
  TGI: 3.87 µM
[9]
  GI50: 2.17 µM
  TGI: 5.8 µM
[10]
  GI50: 2.4 µM
  TGI: 6.64 µM
[11]
  GI50: 1.79 µM
  TGI: 4.7 µM
[12]
  GI50: 2.42 µM
  TGI: 5.85 µM
[13]
  GI50: 2.81 µM
  TGI: 9.9 µM
[14]
  GI50: 1.89 µM
  TGI: 4.29 µM
[15]
  GI50: 2.26 µM
  TGI: 6.29 µM
[16]
  GI50: 1.72 µM
  TGI: 3.61 µM
[17]
  GI50: 2.36 µM
  TGI: 6.69 µM
[18]
  GI50: 1.73 µM
  TGI: 4.11 µM
[19]
  GI50: 1.77 µM
  TGI: 3.67 µM
[20]
  GI50: 1.59 µM
  TGI: 4.19 µM
[21]
  GI50: 1.47 µM
  TGI: 4.24 µM
[22]
  GI50: 2.18 µM
  TGI: 4.53 µM
[23]
  GI50: 2.02 µM
  TGI: 6.33 µM
[24]
  GI50: 2.46 µM
  TGI: 10.6 µM
[25]
  GI50: 2.49 µM
  TGI: 8.57 µM
[26]
  GI50: 2.98 µM
  TGI: 11.3 µM
[27]
  GI50: 2.9 µM
  TGI: 7.11 µM
[28]
  GI50: 2.12 µM
  TGI: 5.48 µM
[29]
  GI50: 2.1 µM
  TGI: 4.99 µM
[30]
  GI50: 2.05 µM
  TGI: 5.43 µM
[31]
  GI50: 2.16 µM
  TGI: 6.01 µM
[32]
  GI50: 1.89 µM
  TGI: 4.41 µM
[33]
  GI50: 2.03 µM
  TGI: 4.96 µM
[34]
  GI50: 1.77 µM
  TGI: 4.78 µM
[35]
  GI50: 1.59 µM
  TGI: 3.19 µM
[36]
  GI50: 1.84 µM
  TGI: 4.33 µM
[37]
  GI50: 2.29 µM
  TGI: 6.21 µM
[38]
  GI50: 2.54 µM
  TGI: 7.86 µM
[39]
  GI50: 1.98 µM
  TGI: 4.49 µM
[40]
  GI50: 2.24 µM
  TGI: 5.21 µM
[41]
  GI50: 3.06 µM
  TGI: 9.95 µM
[42]
  GI50: 1.68 µM
  TGI: 4.02 µM
[43]
  GI50: 2.7 µM
  TGI: 8.41 µM
[44]
  GI50: 1.53 µM
  TGI: 4.76 µM
[45]
  GI50: 2.74 µM
  TGI: 8.94 µM
[46]
  GI50: 1.78 µM
  TGI: 4.23 µM
[47]
  GI50: 1.76 µM
  TGI: 5.28 µM
[48]
  GI50: 3.23 µM
  TGI: 11.2 µM
[49]
  GI50: 1.43 µM
  TGI: 3.76 µM
[50]
  GI50: 2.31 µM
  TGI: 6.24 µM
[51]
  GI50: 1.83 µM
  TGI: 3.53 µM
[52]
  GI50: 2.03 µM
  TGI: 4.43 µM
[53]
  GI50: 2.22 µM
  TGI: 6.28 µM
[54]
  GI50: 2.12 µM
  TGI: 5.03 µM
[55]
  GI50: 2.1 µM
  TGI: 5.71 µM
[56]
  GI50: 2.72 µM
  TGI: 7.77 µM
[57]
  GI50: 2.65 µM
  TGI: 9.13 µM
[58]
  GI50: 1.88 µM
  TGI: 4.53 µM

## O=C(NCc1ncc[nH]1)c1ccc(-c2nc3ccc4[nH]ncc4c3c3c2CCCC3)cc1
[1]
  GI50: 1.69 µM
  TGI: 10.6 µM
[2]
  GI50: 0.818 µM
  TGI: 7.64 µM
[3]
  GI50: 1.51 µM
  TGI: 16.8 µM
[4]
  GI50: 1.12 µM
  TGI: 3.44 µM
[5]
  GI50: 1.94 µM
  TGI: 8.73 µM
[6]
  GI50: 1.5 µM
  TGI: 9.57 µM
[7]
  GI50: 3.61 µM
  TGI: 18.8 µM
[8]
  GI50: 1.64 µM
  TGI: 8.98 µM
[9]
  GI50: 8.04 µM
  TGI: > 50 µM
[10]
  GI50: 1.25 µM
  TGI: 7.65 µM
[11]
  GI50: 1.82 µM
  TGI: 8.21 µM
[12]
  GI50: 1.43 µM
  TGI: 7.44 µM
[13]
  GI50: 1.81 µM
  TGI: 17.3 µM
[14]
  GI50: 0.603 µM
  TGI: 2.76 µM
[15]
  GI50: 1.19 µM
  TGI: 4.6 µM
[16]
  GI50: 3 µM
  TGI: 14.9 µM
[17]
  GI50: 1.17 µM
  TGI: 6.76 µM
[18]
  GI50: 0.549 µM
  TGI: 27.7 µM
[19]
  GI50: 1.68 µM
  TGI: 11.6 µM
[21]
  GI50: 0.869 µM
  TGI: 2.85 µM
[22]
  GI50: 0.957 µM
  TGI: 5.48 µM
[23]
  GI50: 7.57 µM
  TGI: 22.6 µM
[24]
  GI50: 1.38 µM
  TGI: 6.47 µM
[25]
  GI50: 1.61 µM
  TGI: 9.87 µM
[26]
  GI50: 9.18 µM
  TGI: > 50 µM
[27]
  GI50: 1.66 µM
  TGI: > 50 µM
[28]
  GI50: 6.28 µM
  TGI: > 50 µM
[29]
  GI50: 1.31 µM
  TGI: 3.67 µM
[30]
  GI50: 0.707 µM
  TGI: 3.3 µM
[31]
  GI50: 2.86 µM
  TGI: 24.2 µM
[32]
  GI50: 0.958 µM
  TGI: 4.38 µM
[33]
  GI50: 2.66 µM
  TGI: > 50 µM
[34]
  GI50: 1.61 µM
  TGI: 5.2 µM
[35]
  GI50: 1.93 µM
  TGI: 7.51 µM
[37]
  GI50: 1.4 µM
  TGI: 17.3 µM
[38]
  GI50: 1.36 µM
  TGI: > 50 µM
[39]
  GI50: 1.1 µM
  TGI: 2.87 µM
[40]
  GI50: 0.58 µM
  TGI: > 50 µM
[41]
  GI50: 1.33 µM
  TGI: 8.88 µM
[42]
  GI50: 1.08 µM
  TGI: 4.8 µM
[43]
  GI50: 1.97 µM
  TGI: 12.1 µM
[44]
  GI50: 2.02 µM
  TGI: > 50 µM
[45]
  GI50: 1.84 µM
  TGI: 10.9 µM
[46]
  GI50: 1.81 µM
  TGI: 32 µM
[47]
  GI50: 1.29 µM
  TGI: > 50 µM
[48]
  GI50: 2.17 µM
  TGI: > 50 µM
[49]
  GI50: 6.15 µM
  TGI: 23.4 µM
[50]
  GI50: 1.94 µM
  TGI: 7.83 µM
[51]
  GI50: 1.46 µM
  TGI: 6.73 µM
[52]
  GI50: 1.21 µM
  TGI: 5.85 µM
[53]
  GI50: 1.18 µM
  TGI: 6.13 µM
[54]
  GI50: > 50 µM
  TGI: > 50 µM
[55]
  GI50: 1.66 µM
  TGI: 7.05 µM
[56]
  GI50: 1.85 µM
  TGI: 38.1 µM
[57]
  GI50: 3.19 µM
  TGI: 19.7 µM
[58]
  GI50: 1.6 µM
  TGI: > 50 µM
